Test results published in patent publication US12642812B2, “Nicotinamide mononucleotide derivatives and use thereof in the treatment and prevention of an antineoplastic-induced toxicity” (NUVAMID SA, priority 2020, dated 2026).

Key:
Format in all cases: in vivo, mice
[1] = system: doxorubicin-induced cardiotoxicity; experiment: Survival rate in doxorubicin-induced cardiotoxicity model; details: for survival rate (% of survival): DOX 20 mg/kg i.p. mice, compound 180 mg/kg i.p. once daily from 5 days before DOX to D5, 5 days after DOX
Description: The aim of the present study was to evaluate, the effects of i.p. administration of compounds 001, 010 and 011 at 180 mg/kg in the progression of a cardiotoxicity induced by doxorubicin.
(§1) Cardiotoxicity was induced by a single intraperitoneal injection of doxorubicin (DOX) at 20 mg/kg. Doxorubicin was prepared at 2 mg/mL and volume of administration was 10 mL/Kg.
Mortality rate was followed-up all along the experimental phase.
(§2) • Group 1: Vehicle (i.p.) • Group 2: Doxorubicin (20 mg/kg) • Group 3: Doxorubicin (20 mg/kg)+compound 001 180 mg/kg • Group 4: Doxorubicin (20 mg/kg)+compound 010 180 mg/kg • Group 5: Doxorubicin (20 mg/kg)+compound 011 180 mg/kg Group Repartition:
At D0, mice received DOX (20 mg/kg) by intraperitoneal route.
(§3) The treatment with compounds 001, 010 and 011 was initiated from 5 days before DOX injection once per day from […] to D0.
(§4) Mice were i.p treated with compounds 001, 010 and 01130 min before DOX injection.
(§5) Mice were i.p treated with compounds 001,010 and 011 for the duration of the experiment (D0 to D5) once per day. Last injection occurred 24 hours before sacrifice.
The survival rate was recorded every day until the end of the experiment (D5).

[2] = system: doxorubicin-induced cardiotoxicity; experiment: Heart weight in doxorubicin-induced cardiotoxicity model; details: 5 days after DOX; for heart weight (effect of treatment): DOX 20 mg/kg mice, compound 180 mg/kg, vs DOX vehicle mice
Description: as §1, §2, §3, §4, §5
At D5, heart and tibia were collected.

[3] = system: doxorubicin-induced cardiotoxicity; experiment: Assessment of cardiac function by echocardiography in doxorubicin-induced cardiotoxicity model; details: 5 days after DOX; for heart rate (effect of treatment, in words): vs DOX vehicle; for end-systolic LV volume (effect of treatment): vs doxorubicin vehicle group; for anterior and posterior wall thickness in systole (effect of treatment): compound 180 mg/kg
Description: Cardiotoxicity was induced by a single intraperitoneal injection of doxorubicin (DOX) at 20 mg/kg. Doxorubicin was prepared at 2 mg/mL and volume of administration was 10 mL/Kg. • Group 1: Vehicle (i.p.) • Group 2: […] Doxorubicin (20 mg/kg)+compound 001 180 mg/kg • Group 4: Doxorubicin (20 mg/kg)+compound 010 180 mg/kg • Group 5: Doxorubicin (20 mg/kg)+compound 011 180 mg/kg Group Repartition: […] Mice were i.p treated with compounds 001, 010 and 01130 min before DOX injection. Mice were i.p treated with compounds 001,010 and 011 for the duration of the experiment (D0 to D5) once per day. Last injection occurred 24 hours before sacrifice. Echocardiography (ECG) was performed 5 days after doxorubicin injection in anesthetized (isoflurane 1.5-2%) animals with non-invasive two-dimensional echocardiography (VF16-5 probe, Siemens, Acuson NX3 Elite). After removing hairs on the chest, numeric images of the heart will be obtained in both parasternal long-axis and short axis views. The following cardiac function were assessed during ECG: • Left ventricle (LV) end-systolic and end-diastolic inner diameter, • LV end-systolic and end-diastolic volume, • Fractional shortening; • Ejection fraction; • Heart Rate; and • Anterior and posterior wall thickness in Diastole and in systole.

[4] = system: doxorubicin-induced cardiotoxicity; experiment: Body weight in doxorubicin-induced cardiotoxicity model; details: for body weight loss observed after doxorubicin administration (effect of treatment): DOX 20 mg/kg i.p. mice, compound 180 mg/kg i.p. daily, D5 vs before injection, vs DOX vehicle
Description: The treatment with compounds 001, 010 and 011 was initiated from 5 days before DOX injection once per day from D5 to D0.
The bodyweight was assessed at inclusion and at D5.

[5] = system: doxorubicin-induced cardiotoxicity; experiment: Plasmatic LDH biomarker in doxorubicin-induced cardiotoxicity model; details: plasma, 5 days after DOX
Description: as §1, §2, §3, §4, §5
Retro-orbital blood collection was performed at the inclusion and at 1 and 5 days after the induction with DOX to assess biomarkers (especially LDH).
DOX mice were treated with compounds 001,010 and 011 (180 mg/kg) or vehicle. Plasmatic LDH (lactate dehydrogenase) was measured 5 days after doxorubicin injection.

[6] = DOX 20 mg/kg mice, compound 180 mg/kg i.p. daily
[7] = doxorubicin 20 mg/kg + vehicle vs control group
[8] = doxorubicin-treated mice (20 mg/kg, vehicle) vs control

Structure (SMILES)	survival rate (% of survival) [1]	heart weight (effect of treatment) [2]	ejection fraction [3, 6]	fractional shortening [3, 6]	heart rate (effect of treatment, in words) [3, 6]	end-systolic LV volume (effect of treatment) [3, 6]	anterior and posterior wall thickness in systole (effect of treatment) ([3]; DOX 20 mg/kg mice)	body weight loss observed after doxorubicin administration (effect of treatment) [4]	also measured
NC(=O)c1ccc[n+]([C@H]2O[C@H](COP(=O)([O-])OP(=O)([O-])OC[C@H]3O[C@H]([n+]4cccc(C(N)=O)c4)[C@H](O)[C@@H]3O)[C@@H](O)[C@H]2O)c1 [Compound 011]	100%	tended to increase	58.2±0.5%	around 38%	increased	reduced	non-significant increases	significantly decreased	
NC(=O)c1ccc[n+]([C@@H]2O[C@H](COP(=O)([O-])OP(=O)([O-])OC[C@H]3O[C@H]([n+]4cccc(C(N)=O)c4)[C@H](O)[C@@H]3O)[C@@H](O)[C@H]2O)c1 [Compound 010]	98%	tended to increase	60.0±0.6%	around 38%	increased	reduced	non-significant increases	significantly decreased	heart rate [3, 6]: 470.1±18.8 bpm
COc1cccc2c1C(=O)c1c(O)c3c(c(O)c1C2=O)C[C@@](O)(C(=O)CO)C[C@@H]3O[C@H]1C[C@H](N)[C@H](O)[C@H](C)O1 [doxorubicin, reference compound]									increase in LDH release compared to control group ([5]; doxorubicin 20 mg/kg + vehicle): more than 3 fold; mice died before the end of experimental protocol ([1]; doxorubicin 20 mg/kg i.p. mice treated with vehicle, up to D5): ~50%; heart weight ([2]; doxorubicin 20 mg/kg + vehicle): 102.3 ± 4.6 mg; end-diastolic LV volume [3, 7]: without significative difference; end-systolic LV volume [3, 7]: significant increase; anterior and posterior wall thickness in systole ([3]; doxorubicin 20 mg/kg + vehicle vs control): significantly decreased; heart rate ([3]; doxorubicin 20 mg/kg + vehicle): 365.1±23.9 bpm; ejection fraction ([3]; doxorubicin 20 mg/kg vehicle group): 38.9±1.3%; LV internal diameter in diastole [3, 8]: without significative difference; LV internal diameter in systole [3, 8]: significantly increased; fractional shortening ([3]; doxorubicin-treated mice (20 mg/kg, vehicle)): 33.5±0.4%; decrease in body weight (body weight gain) ([4]; doxorubicin 20 mg/kg i.p., surviving vehicle-treated mice, day of sacrifice minus before injection): -4.2 ± 0.5 g
NC(=O)c1ccc[n+]([C@@H]2O[C@H](COP(=O)([O-])O)[C@@H](O)[C@H]2O)c1 [Compound 001, nicotinamide mononucleotide]	78%		56.9±0.6%	around 38%	increased	reduced	non-significant increases	significantly decreased	decrease of LDH release / reduction in LDH levels ([5]; DOX 20 mg/kg mice, compound 180 mg/kg, vs DOX vehicle): more than 35%
